Test: xn = mol fraction of the nth substance listed
Conditions: 101 kPa, Liquid; for viscosity: Falling or rolling sphere viscometry; for speed of sound: Sing-around technique in a fixed-path interferometer; for mass density: Vibrating tube method

CCCC[n+]1ccn(C)c1.O=S(=O)([N-]S(=O)(=O)C(F)(F)F)C(F)(F)F + CCO
Conditions	mass density [kg/m3]	speed of sound [m/s]	viscosity [mPa·s]
278.15 K, x1 = 0.049	939.65	1204.6	2.64
278.15 K, x1 = 0.096	1032.42	1204.5	3.8
278.15 K, x1 = 0.194	1162.65	1213.9	7.4
278.15 K, x1 = 0.288	1241.69	1225.4	12.59
278.15 K, x1 = 0.39	1300.98	1237.1	18.82
278.15 K, x1 = 0.484	1340.75	1245.5	26.93
278.15 K, x1 = 0.591	1375.63	1253.5	38
278.15 K, x1 = 0.696	1401.82	1260	52.96
278.15 K, x1 = 0.818	1426.17	1266.3	77.99
278.15 K, x1 = 0.9	1439.65	1269.8	99.43
278.15 K, x1 = 1	1453.69	1273.8	139.82
298.15 K, x1 = 0.049	921.49	1142.4	1.71
298.15 K, x1 = 0.096	1013.65	1146.4	2.35
298.15 K, x1 = 0.194	1143.26	1160.7	4.13
298.15 K, x1 = 0.288	1222.07	1174.6	6.64
298.15 K, x1 = 0.39	1281.27	1188	9.5
298.15 K, x1 = 0.484	1321.04	1197.4	12.92
298.15 K, x1 = 0.591	1355.98	1206.2	17.3
298.15 K, x1 = 0.696	1382.23	1213.2	22.86
298.15 K, x1 = 0.818	1406.65	1219.8	31.21
298.15 K, x1 = 0.9	1420.19	1223.6	38.05
298.15 K, x1 = 1	1434.23	1227.5	51.22
318.15 K, x1 = 0.049	903.02	1082	1.18
318.15 K, x1 = 0.096	994.64	1090	1.57
318.15 K, x1 = 0.194	1123.77	1109.1	2.61
318.15 K, x1 = 0.288	1202.45	1125.5	3.95
318.15 K, x1 = 0.39	1261.65	1140.5	5.62
318.15 K, x1 = 0.484	1301.51	1150.8	7.52
318.15 K, x1 = 0.591	1336.54	1160.7	9.76
318.15 K, x1 = 0.696	1362.91	1168.3	12.42
318.15 K, x1 = 0.818	1387.44	1175.6	16.16
318.15 K, x1 = 0.9	1401.04	1179.7	19.03
318.15 K, x1 = 1	1415.13	1184	24.36
338.15 K, x1 = 0.049	883.95	1022.5	0.85
338.15 K, x1 = 0.096	975.18	1034.5	1.12
338.15 K, x1 = 0.194	1104.04	1058.5	1.79
338.15 K, x1 = 0.288	1182.73	1077.4	2.71
338.15 K, x1 = 0.39	1242.06	1094.2	3.7
338.15 K, x1 = 0.484	1282.08	1105.8	4.86
338.15 K, x1 = 0.591	1317.28	1116.5	6.26
338.15 K, x1 = 0.696	1343.8	1124.9	7.79
338.15 K, x1 = 0.818	1368.47	1133	9.83
338.15 K, x1 = 0.9	1382.15	1137.6	11.28
338.15 K, x1 = 1	1396.35	1142.7	13.94

Source: the NIST ThermoML archive (doi:10.1021/je500594z)
